Experimental data from ChEMBL document CHEMBL1201862, “PubChem BioAssay data set” (2004).
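Values below derive from 48-hour exposures of cells grown in 96-well plates, with endpoints linearly interpolated between the two concentrations bracketing the appropriate inhibition level. The concentration for 50% growth inhibition is given as GI50.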 Active and inactive are the calls of the source. Rule as the data show it: active = GI50 up to about 1.1 µM and inactive = higher.

Columns and labels:
Assay in all cases: inhibition of tumour cell growth, NCI panel, 48 h
[1] = test system: SW-620
[2] = test system: 786-0
[3] = test system: NCI/ADR-RES
[4] = test system: A498
[5] = test system: MDA-N
[6] = test system: K562
[7] = test system: IGROV-1
[8] = test system: DU-145
[9] = test system: LOX IMVI
[10] = test system: UACC-62
[11] = test system: HCT-116
[12] = test system: SF-268
[13] = test system: SNB-19
[14] = test system: T47D
[15] = test system: UACC-257
[16] = test system: MDA-MB-231
[17] = test system: ACHN
[18] = test system: MOLT-4
[19] = test system: TK-10
[20] = test system: EKVX
[21] = test system: HT-29
[22] = test system: SR
[23] = test system: U-251
[24] = test system: SN12C
[25] = test system: OVCAR-3
[26] = test system: OVCAR-5
[27] = test system: Hs-578T
[28] = test system: NCI-H23
[29] = test system: SNB-75
[30] = test system: HCC 2998
[31] = test system: CCRF-CEM
[32] = test system: Malme-3M
[33] = test system: SK-MEL-5
[34] = test system: A549
[35] = test system: SK-OV-3
[36] = test system: RPMI-8226
[37] = test system: BT-549
[38] = test system: SK-MEL-2
[39] = test system: HL-60
[40] = test system: HOP-92
[41] = test system: MDA-MB-435
[42] = test system: PC-3
[43] = test system: CAKI-1
[44] = test system: NCI-H226
[45] = test system: KM12
[46] = test system: COLO 205
[47] = test system: M14
[48] = test system: HCT-15
[49] = test system: OVCAR-8
[50] = test system: UO-31
[51] = test system: SF-539
[52] = test system: HOP-62
[53] = test system: MCF7
[54] = test system: SF-295
[55] = test system: NCI-H522
[56] = test system: RXF 393
[57] = test system: NCI-H460
[58] = test system: SK-MEL-28
[59] = test system: OVCAR-4

## CNC(=S)/C(C#N)=C(\N)N1CCN(C)CC1
[1]
  GI50: > 100 µM (inactive)
[2]
  GI50: > 100 µM (inactive)
[3]
  GI50: > 100 µM (inactive)
[4]
  GI50: > 100 µM (inactive)
[5]
  GI50: > 100 µM (inactive)
[6]
  GI50: > 100 µM (inactive)
[7]
  GI50: > 100 µM (inactive)
[8]
  GI50: > 100 µM (inactive)
[9]
  GI50: > 100 µM (inactive)
[10]
  GI50: > 100 µM (inactive)
[11]
  GI50: > 100 µM (inactive)
[12]
  GI50: > 100 µM (inactive)
[13]
  GI50: > 100 µM (inactive)
[14]
  GI50: > 100 µM (inactive)
[15]
  GI50: > 100 µM (inactive)
[16]
  GI50: 30.5 µM (inactive)
[17]
  GI50: > 100 µM (inactive)
[18]
  GI50: > 100 µM (inactive)
[19]
  GI50: > 100 µM (inactive)
[20]
  GI50: > 100 µM (inactive)
[21]
  GI50: > 100 µM (inactive)
[22]
  GI50: > 100 µM (inactive)
[23]
  GI50: > 100 µM (inactive)
[24]
  GI50: > 100 µM (inactive)
[25]
  GI50: > 100 µM (inactive)
[26]
  GI50: > 100 µM (inactive)
[27]
  GI50: > 100 µM (inactive)
[28]
  GI50: > 100 µM (inactive)
[29]
  GI50: > 100 µM (inactive)
[30]
  GI50: > 100 µM (inactive)
[31]
  GI50: > 100 µM (inactive)
[32]
  GI50: > 100 µM (inactive)
[33]
  GI50: > 100 µM (inactive)
[34]
  GI50: > 100 µM (inactive)
[35]
  GI50: > 100 µM (inactive)
[36]
  GI50: > 100 µM (inactive)
[37]
  GI50: > 100 µM (inactive)
[38]
  GI50: > 100 µM (inactive)
[39]
  GI50: > 100 µM (inactive)
[40]
  GI50: > 100 µM (inactive)
[41]
  GI50: > 100 µM (inactive)
[42]
  GI50: > 100 µM (inactive)
[43]
  GI50: > 100 µM (inactive)
[44]
  GI50: > 100 µM (inactive)
[45]
  GI50: > 100 µM (inactive)
[46]
  GI50: > 100 µM (inactive)
[47]
  GI50: > 100 µM (inactive)
[48]
  GI50: > 100 µM
[49]
  GI50: > 100 µM (inactive)
[50]
  GI50: > 100 µM (inactive)
[51]
  GI50: > 100 µM (inactive)
[52]
  GI50: > 100 µM (inactive)
[53]
  GI50: > 100 µM (inactive)
[54]
  GI50: > 100 µM (inactive)
[55]
  GI50: > 100 µM (inactive)
[56]
  GI50: > 100 µM (inactive)

## CCOC(=O)c1cn(CC)c2cc3c(cc2c1=O)CCS3(=O)=O
[1]
  GI50: > 100 µM (inactive)
[2]
  GI50: > 100 µM (inactive)
[3]
  GI50: > 100 µM (inactive)
[4]
  GI50: > 100 µM (inactive)
[57]
  GI50: > 100 µM (inactive)
[5]
  GI50: > 100 µM (inactive)
[6]
  GI50: > 100 µM (inactive)
[7]
  GI50: > 100 µM (inactive)
[8]
  GI50: > 100 µM (inactive)
[10]
  GI50: > 100 µM (inactive)
[11]
  GI50: > 100 µM (inactive)
[12]
  GI50: > 100 µM (inactive)
[13]
  GI50: > 100 µM (inactive)
[14]
  GI50: > 100 µM (inactive)
[16]
  GI50: > 100 µM (inactive)
[17]
  GI50: > 100 µM (inactive)
[18]
  GI50: > 100 µM (inactive)
[19]
  GI50: > 100 µM (inactive)
[20]
  GI50: > 100 µM (inactive)
[21]
  GI50: > 100 µM (inactive)
[22]
  GI50: > 100 µM (inactive)
[23]
  GI50: > 100 µM (inactive)
[24]
  GI50: > 100 µM (inactive)
[25]
  GI50: > 100 µM (inactive)
[26]
  GI50: > 100 µM (inactive)
[27]
  GI50: > 100 µM (inactive)
[28]
  GI50: > 100 µM (inactive)
[30]
  GI50: > 100 µM (inactive)
[31]
  GI50: > 100 µM (inactive)
[32]
  GI50: > 100 µM (inactive)
[33]
  GI50: > 100 µM (inactive)
[34]
  GI50: > 100 µM (inactive)
[35]
  GI50: > 100 µM (inactive)
[37]
  GI50: > 100 µM (inactive)
[38]
  GI50: 19.1 µM (inactive)
[39]
  GI50: > 100 µM (inactive)
[40]
  GI50: > 100 µM (inactive)
[41]
  GI50: > 100 µM (inactive)
[42]
  GI50: > 100 µM (inactive)
[44]
  GI50: > 100 µM (inactive)
[45]
  GI50: > 100 µM (inactive)
[58]
  GI50: > 100 µM (inactive)
[47]
  GI50: > 100 µM (inactive)
[48]
  GI50: > 100 µM
[49]
  GI50: > 100 µM (inactive)
[50]
  GI50: > 100 µM (inactive)
[51]
  GI50: > 100 µM (inactive)
[52]
  GI50: > 100 µM (inactive)
[53]
  GI50: > 100 µM (inactive)
[54]
  GI50: > 100 µM (inactive)
[56]
  GI50: > 100 µM (inactive)

## COC(=O)/C=C\Sc1ccn(/C=C\C(=O)OC)c(=S)n1
[1]
  GI50: 26 µM (inactive)
[3]
  GI50: 19.6 µM (inactive)
[4]
  GI50: 20.2 µM (inactive)
[57]
  GI50: > 10 µM (inactive)
[5]
  GI50: 27.3 µM (inactive)
[6]
  GI50: 38.5 µM (inactive)
[7]
  GI50: 16.9 µM (inactive)
[8]
  GI50: > 100 µM (inactive)
[9]
  GI50: 2.77 µM (inactive)
[12]
  GI50: 24.4 µM (inactive)
[13]
  GI50: 21.8 µM (inactive)
[14]
  GI50: 18.4 µM (inactive)
[15]
  GI50: 28.6 µM (inactive)
[16]
  GI50: 26.1 µM (inactive)
[17]
  GI50: 18.2 µM (inactive)
[19]
  GI50: 27.9 µM (inactive)
[20]
  GI50: 26.2 µM (inactive)
[21]
  GI50: 22.2 µM (inactive)
[22]
  GI50: 13.7 µM (inactive)
[23]
  GI50: 19.9 µM (inactive)
[24]
  GI50: 23.6 µM (inactive)
[25]
  GI50: 13.8 µM (inactive)
[26]
  GI50: 38.5 µM (inactive)
[27]
  GI50: 25.5 µM (inactive)
[28]
  GI50: 25.8 µM (inactive)
[29]
  GI50: 22.9 µM (inactive)
[30]
  GI50: 37.1 µM (inactive)
[31]
  GI50: > 100 µM (inactive)
[32]
  GI50: 22.4 µM (inactive)
[33]
  GI50: 24.1 µM (inactive)
[34]
  GI50: 22.1 µM (inactive)
[36]
  GI50: 46 µM (inactive)
[37]
  GI50: 22.9 µM (inactive)
[38]
  GI50: 19.9 µM (inactive)
[39]
  GI50: > 100 µM (inactive)
[40]
  GI50: 18.5 µM (inactive)
[41]
  GI50: 23.1 µM (inactive)
[42]
  GI50: 19.1 µM (inactive)
[43]
  GI50: 16.6 µM (inactive)
[45]
  GI50: 12.4 µM (inactive)
[46]
  GI50: 66.5 µM (inactive)
[58]
  GI50: 29.9 µM (inactive)
[47]
  GI50: 49.9 µM (inactive)
[48]
  GI50: 16.7 µM
[49]
  GI50: 19.2 µM (inactive)
[50]
  GI50: 25.1 µM (inactive)
[51]
  GI50: 18.4 µM (inactive)
[59]
  GI50: 16.9 µM (inactive)
[52]
  GI50: 17.1 µM (inactive)
[53]
  GI50: 14.3 µM (inactive)
[55]
  GI50: 16.1 µM (inactive)
[56]
  GI50: 10.5 µM (inactive)
